We go through twelve compounds from US20220133711A1, “CAMPTOTHECIN DERIVATIVES” (priority 2019, published 2022).

Like-named read-outs stand apart in the source and are kept apart here.

What is called IC50 is the midpoint of a concentration-inhibition curve.

Holding throughout (format): cell-based
Assay [1] concerns HSC-2. Nature of the assay: In vitro cytotoxicity assay (WST-8 cell viability, 5 days). Conditions: Homo sapiens. As for the experimental part: (§1) Cytotoxic potencies were assessed in flat-bottomed 96 well plates (Costar) using a water-soluble tetrazonium salt (WST-8) based cell viability assay (Dojindo, Molecular Technologies, Inc.) as previously described (Kovtun Y V, et al. Antibody-maytansinoid conjugates designed to bypass multidrug resistance. Cancer Res 2010; 70(6):2528-37). Briefly, human tumor cells (1,000-5,000 cells/well, depending on the cell line), in the appropriate culture medium were incubated, with conjugates in the presence or absence of an excess of the corresponding unconjugated antibodies, or with the metabolites for 5 days, at 37° C., 6% CO2. Cell viability was determined from background-corrected WST-8 absorbance.
On the technique in general: Formazan colour is commonly taken as a measure of viable cells.

The subject of assay [2] is Namalwa. The assay is described as above. Conditions: Homo sapiens, read-out: In vitro cytotoxicity (IC50) Namalwa. As for the experimental part: as §1
Assay [3] has as its system SUDHL-1. The description is as above. Conditions: Homo sapiens, SU-DHL-1, read-out: In vitro cytotoxicity (IC50) SUDHL-1. As to the method:
as §1

The subject of assay [4] is N-Luc (Namalwa cells stably transfected with the Luciferase gene). Described as above. Conditions: Homo sapiens. As to the method:
as §1

The subject of assay [5] is MDA-MB-468. The description is as above. Conditions: Homo sapiens, MDA-MB-468, read-out: In vitro cytotoxicity (IC50) MDA-MB-468. As for the experimental part: as §1
Assay [6] relates to KB. Put plainly: cells. Conditions: Homo sapiens, read-out: In vitro cytotoxicity (IC50) KB. As to the method: as §1
Setting [7] is: HSC-2, read-out: In vitro cytotoxicity (IC50) HSC-2, non-conjugated compounds, Table 7A.
Where [8] appears, read: read-out: In vitro cytotoxicity (IC50) N-Luc, non-conjugated compounds, Table 7A.
Where [9] appears, read: read-out: In vitro cytotoxicity (IC50) N-Luc, non-conjugated compounds, Table 7B.
[10] abbreviates: HSC-2, read-out: In vitro cytotoxicity (IC50) HSC-2.
[11] abbreviates: HSC-2, read-out: In vitro cytotoxicity (IC50) HSC-2, non-conjugated compounds, Table 7B.

Regarding `CC[C@@]1(O)C(=O)OCc2c1cc1n(c2=O)Cc2c-1nc1cc(F)c(C)cc1c2CCl` [Compound 4a], the 50% inhibitory concentration (IC50) worked out at 4 nM in assay [1] (setting [7]) and 3 nM in assay [2].
In the case of `CC[C@@]1(O)C(=O)OCc2c1cc1n(c2=O)Cc2c-1nc1cc(F)c(SC)cc1c2CCl` [Compound 4b], the IC50 in assay [1] (setting [7]) worked out at 3 nM; in assay [2], 1 nM.
Take `CC[C@@]1(O)C(=O)OCc2c1cc1n(c2=O)Cc2c-1nc1cc(F)c(C)cc1c2CNC(=O)CO` [Compound 7a]: the IC50 stood at 0.5 nM in assay [3]; 1 nM in assay [4] (setting [8]); 0.9 nM in assay [4] (setting [9]); 2 nM in assay [1] (setting [10]); 4 nM in assay [1] (setting [7]); 3 nM in assay [5]. In assay [2], the IC50 is 0.9 nM.
On to `CC[C@@]1(O)C(=O)OCc2c1cc1n(c2=O)Cc2c-1nc1cc(F)c(SC)cc1c2CNC(=O)CO` [Compound 7b], for which the IC50 in assay [4] (setting [8]) stood at 2 nM; in assay [1] (setting [7]), 7 nM.
As to `CC[C@@]1(O)C(=O)OCc2c1cc1n(c2=O)Cc2c-1nc1cc(F)c(C)cc1c2CN(Cc1ccccc1)C(=O)CO` [Compound 7c], the IC50 in assay [3] stood at 0.2 nM; in assay [4] (setting [8]), 0.7 nM; in assay [1] (setting [7]) it was 1 nM; in assay [5] it was 1 nM.
Turning to `CC[C@@]1(O)C(=O)OCc2c1cc1n(c2=O)Cc2c-1nc1cc(F)c(C)cc1c2CCCCO` [Compound 8a], the IC50 was found to be 0.9 nM in assay [4] (setting [8]); 0.2 nM in assay [4] (setting [9]); 0.6 nM in assay [1] (setting [7]); 0.5 nM in assay [1] (setting [11]); 2 nM in assay [5]; 0.2 nM in assay [2]. The concentration for half-maximal inhibition (IC50) in assay [6] was found to be 0.6 nM.
Consider `CC[C@@]1(O)C(=O)OCc2c1cc1n(c2=O)Cc2c-1nc1cc(F)c(C)cc1c2CSCCO` [Compound 8c], for which the IC50 is 0.2 nM in assay [4] (setting [9]) and 0.4 nM in assay [1] (setting [10]).
Turning to `CC[C@@]1(O)C(=O)OCc2c1cc1n(c2=O)Cc2c-1nc1cc(F)c(C)cc1c2CSCCSC` [Compound 8p], the values for the IC50 in assay [4] (setting [9]) and in assay [1] (setting [11]) were 0.2 nM and 0.6 nM, respectively.
Take `CC[C@@]1(O)C(=O)OCc2c1cc1n(c2=O)Cc2c-1nc1cc(F)c(C)cc1c2CCCCSC` [Compound 33a]: the half-maximal inhibitory concentration (IC50) stood at 2 nM in assay [1] (setting [7]) and 0.7 nM in assay [2].
On to `CC[C@@]1(O)C(=O)OCc2c1cc1n(c2=O)Cc2c-1nc1cc(F)c(C)cc1c2C[S+]([O-])CCO` (some centres unmarked) [Compound 34a], for which the IC50 was found to be 9 nM in assay [1] (setting [7]), 7 nM in assay [5] and 7 nM in assay [6].
As for `CC[C@@]1(O)C(=O)OCc2c1cc1n(c2=O)Cc2c-1nc1cc(F)c(C)cc1c2CS(=O)(=O)CCO` [Compound 34b], the IC50 was determined as 3 nM in assay [1] (setting [7]), 3 nM in assay [5] and 2 nM in assay [6].
On to `CC[C@@]1(O)C(=O)OCc2c1cc1n(c2=O)Cc2c-1nc1cc(F)c(C)cc1c2CNC(=O)CCCCCSC` [Compound 35a], for which the values for the IC50 in assay [3] and in assay [1] (setting [7]) were 0.6 nM and 7 nM, respectively.
